Data published in patent publication US6828330B2, “Quinuclidine-substituted hetero-bicyclic aromatic compounds for the treatment of disease” (Pharmacia & Upjohn Company, priority 2001, dated 2004).
Structures can show the parent of a compound that is named as a salt.

Molecular target: T1, α7 nAChR (Rattus norvegicus, UniProt Q05941)
T1 construct: the brains (whole brain minus cerebellum) are dissected quickly, weighed and homogenized; from tissue; host or cells: rat brain (whole brain minus cerebellum) membranes
T1 sequence (Q05941 23-502): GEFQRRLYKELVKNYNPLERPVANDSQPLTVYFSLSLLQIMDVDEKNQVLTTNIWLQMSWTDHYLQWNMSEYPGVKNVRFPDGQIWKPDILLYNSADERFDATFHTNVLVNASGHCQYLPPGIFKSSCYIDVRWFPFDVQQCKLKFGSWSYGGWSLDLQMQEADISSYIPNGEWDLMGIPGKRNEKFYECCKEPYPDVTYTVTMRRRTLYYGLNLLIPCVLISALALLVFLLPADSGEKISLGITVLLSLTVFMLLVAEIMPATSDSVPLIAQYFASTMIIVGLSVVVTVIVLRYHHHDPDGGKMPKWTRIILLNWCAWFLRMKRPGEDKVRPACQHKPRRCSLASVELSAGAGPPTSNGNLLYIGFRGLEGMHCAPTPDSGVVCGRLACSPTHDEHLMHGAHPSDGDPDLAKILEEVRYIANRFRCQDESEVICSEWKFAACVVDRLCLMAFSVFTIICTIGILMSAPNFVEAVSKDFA
Experiment: [3H]-MLA competition binding assay in rat brain membranes
Details: inhibition of [3H]-MLA binding (3.0 to 4.0 nM), rat brain homogenate (whole brain minus cerebellum), 1 hr at 25° C, Cheng-Prusoff
Description: Materials and Methods for Identifying Binding Constants
Membrane Preparation. Male Sprague-Dawley rats (300-350 g) are sacrificed by decapitation and the brains (whole brain minus cerebellum) are dissected quickly, weighed and homogenized in 9 volumes/g wet weight of ice-cold 0.32M sucrose using a rotating pestle on setting 50 (10 up and down strokes). The homogenate is centrifuged at 1,000×g for 10 minutes at 4° C. The supernatant is collected and centrifuged at 20,000×g for 20 minutes at 4° C. The resulting pellet is resuspended to a protein concentration of 1-8 mg/mL. Aliquots of 5 mL homogenate are frozen at −80° C. until needed for the assay. On the day of the assay, aliquots are thawed at room temperature and diluted with Kreb's −20 mM Hepes buffer pH 7.0 (at room temperature) containing 4.16 mM NaHCO3, 0.44 mM KH2PO4, 127 mM NaCl, 5.36 mM KCl, 1.26 mM CaCl2, and 0.98 mM MgCl2, so that 25-150 μg protein are added per test tube. Proteins are determined by the Bradford method (Bradford, M. M., Anal. Biochem., 72, 248-254, 1976) using bovine serum albumin as the standard.
Binding Assay. For saturation studies, 0.4 mL homogenate are added to test tubes containing buffer and various concentrations of radioligand, and are incubated in a final volume of 0.5 mL for 1 hr at 25° C. Nonspecific binding was determined in tissues incubated in parallel in the presence of 0.05 ml MLA for a final concentration of 1 μM MLA, added before the radioligand. In competition studies, drugs are added in increasing concentrations to the test tubes before addition of 0.05 ml [^3H]-MLA for a final concentration of 3.0 to 4.0 nM [^3H]-MLA. The incubations are terminated by rapid vacuum filtration through Whatman GF/B glass filter paper mounted on a 48 well Brandel cell harvester. Filters are pre-soaked in 50 mM Tris HCl pH 7.0-0.05% polyethylenimine. The filters are rapidly washed two times with 5 mL aliquots of cold 0.9% saline and then counted for radioactivity by liquid scintillation spectrometry.
Data Analysis. In competition binding studies, the inhibition constant (Ki) was calculated from the concentration dependent inhibition of [^3H]-MLA binding obtained from non-linear regression fitting program according to the Cheng-Prusoff equation (Cheng, Y. C. and Prussoff, W. H., Biochem. Pharmacol., 22, pp. 3099-3108, 1973). Hill coefficients were obtained using non-linear regression (GraphPad Prism sigmoidal dose-response with variable slope).

`O=C(N[C@H]1CN2CCC1CC2)c1ccc2ocnc2c1` [Example 3, N-((3R)1-azabicyclo[2.2.2]oct-3-yl)-1,3-benzoxazole-5-carboxamide.fumarate] gave a Ki of 32 nM.

With `Cc1nc2cc(C(=O)N[C@H]3CN4CCC3CC4)ccc2o1` [Example 4, N-((3R)1-azabicyclo[2.2.2]oct-3-yl)-2-methyl-1,3-benzoxazole-5-carboxamide.fumarate] the Ki was 305 nM.

`O=C(N[C@H]1CN2CCC1CC2)c1ccc2ncsc2c1` [Example 5, N-((3R)1-azabicyclo[2.2.2]oct-3-yl)-1,3-benzothiazole-6-carboxamide.fumarate] was tested, and the Ki was 30 nM.

Molecule `O=C(N[C@H]1CN2CCC1CC2)c1ccc2c(c1)CCC2` [Example 6, N-((3R)1-azabicyclo[2.2.2]oct-3-yl)indane-5-carboxamide.fumarate] has a Ki of 110 nM.

Work on `O=C(N[C@H]1CN2CCC1CC2)c1ccc2c(c1)OCO2` [Example 7, N-((3R)-1-azabicyclo[2.2.2]oct-3-yl)-1,3-benzodioxole-5-carboxamide, 4-methylbenzenesulfonate] yielded a Ki of 24 nM.

`C[C@H]1[C@H](NC(=O)c2ccc3ncsc3c2)C2CCN1CC2` [Example 11, N-[(2S,3R)-2-methyl-1-azabicyclo[2.2.2]oct-3-yl]-1,3-benzothiazole-6-carboxamide hydrochloride] showed a Ki of 92 nM.

For `C[C@H]1[C@H](NC(=O)c2nc3ccccc3s2)C2CCN1CC2` [Example 1005, N-[(2S,3R)-2-methyl-1-azabicyclo[2.2.2]oct-3-yl]-1,3-benzothiazole-2-carboxamide hydrochloride], the Ki was 73 nM.
